Structures can show the parent of a compound that is named as a salt.
System: PMS1
Test: Mini-gene reporter assay-PMS1
Assay type: cell-based
Settings: Homo sapiens, HEK293, PMS1 mini-gene firefly luciferase reporter transiently transfected into HEK293 cells; read-out: PMS1 IC50
Description: Biological Activity of the Compounds of the Present Disclosure Mini-gene reporter assay-PMS1
Mini-gene reporter constructs for each target site can be constructed by first PCR amplifying the region-of-interest including the sequence of the alternatively skipped, sequences of the immediate upstream and downstream introns, and sequences of the immediate upstream and downstream exons. Then the 3′end of the amplified sequence can be ligated to a firefly luciferase reporter gene and cloned into the pcDNA3.1 vector backbone. The final reporter construct can be transiently transfected into HEK293 cells using Lipofectamine 3000 transfection reagents. Compounds that can induce the inclusion of the skipped exon in the reporter construct would increase the reporter firefly luciferase activity.
Test compounds may be diluted in duplicates and dispensed into an assay plate. Transient mini-gene reporter cell line stock is resuspended and dispensed into the assay plate. Assay plates are then centrifuged and incubated. A luciferase reagent (e.g. ONE-Glo firefly luciferase reagent from Promega®) may be added to the assay plate and the luminescence (RLU) signals recorded. PMS1 EC50 values may be determined by curve fitting in Levenberg-Marquardt algorithm.

**Q.** How did the IC50 turn out when CCOc1nc(N2CC3(CCNCC3)[C@H]3COC[C@H]32)ncc1C(=O)Nc1cc(F)c2nc(C)cn2c1 (racemic) [Compound 124] was run?
**A.** > 3000 nM

**Q.** For CCOc1nc(N2CCNC3CC32)ncc1C(=O)Nc1cc(F)c2nc(C)cn2c1 (stereo not shown) [Compound 192], which IC50 is on record?
**A.** 500 to 1000 nM

**Q.** For CCOc1nc(N2CC[C@H](NC)C2)ncc1C(=O)Nc1cc(F)c2nc(C)cn2c1 (single isomer, unassigned) [Compound 312, hydrochloride], which IC50 is on record?
**A.** < 500 nM

**Q.** Which IC50 does the source give for CCOc1nc(N2CCOC3(CCNC3)C2)ncc1C(=O)Nc1cc(F)c2nc(C)cn2c1 (stereo not shown) [Compound 195] here?
**A.** 1000 to 3000 nM

**Q.** With CCOc1nc(N2CCNCCC2C)ncc1C(=O)Nc1cc(F)c2nc(C)cn2c1 (stereo not shown) [Compound 205] as the compound, how does the IC50 read?
**A.** 500 to 1000 nM

**Q.** How did the IC50 turn out when CCOc1nc(N2CC[C@@H](NC)C2)ncc1C(=O)Nc1ccc2nn(C)cc2c1 [Compound 286, (R)-4-ethoxy-N-(2-methyl-2H-indazol-5-yl)-2-(3-(methylamino)pyrrolidin-1-yl)pyrimidine-5-carboxamide formate] was run?
**A.** 500 to 1000 nM

**Q.** Which IC50 does the source give for CCOc1nc(N2C[C@@H]3CNC[C@]3(C)C2)ncc1C(=O)Nc1cn2cc(C)nc2c(C)n1 (racemic) [Compound 98] here?
**A.** < 500 nM

**Q.** For CCOc1nc(N2CC[C@H](N(C)C)C2)ncc1C(=O)Nc1cc(F)c2nn(C)cc2c1 [Compound 291, (S)-2-(3-(dimethylamino)pyrrolidin-1-yl)-4-ethoxy-N-(7-fluoro-2-methyl-2H-indazol-5-yl)pyrimidine-5-carboxamide formate], which IC50 is on record?
**A.** > 3000 nM

**Q.** How did the IC50 turn out when CCOc1nc(N2CCC[C@H]3CNC[C@H]32)ncc1C(=O)Nc1cc(F)c2nc(C)cn2c1 [Compound 193] was run?
**A.** 500 to 1000 nM

**Q.** For CCOc1nc(N(C)C2CC3CCC(C2)N3)ncc1C(=O)Nc1cc(F)c2nc(C)cn2c1 (stereo not shown) [Compound 190], which IC50 is on record?
**A.** < 500 nM

**Q.** For CCCOc1nc(N2CCNCC2)ncc1C(=O)Nc1cc(F)c2nn(C)cc2c1 [Compound 301, N-(7-fluoro-2-methyl-2H-indazol-5-yl)-2-(piperazin-1-yl)-4-propoxypyrimidine-5-carboxamide], which IC50 is on record?
**A.** 1000 to 3000 nM

**Q.** For CCOc1nc(N2CCNC(C)(C)C2)ncc1C(=O)Nc1cn2cc(C)nc2cn1 [Compound 10, 2-(3,3-dimethylpiperazin-1-yl)-4-ethoxy-N-{2-methylimidazo[1,2-a]pyrazin-6-yl}pyrimidine-5-carboxamide], which IC50 is on record?
**A.** > 3000 nM

**Q.** CCOc1nc(N2C[C@H]3CNCC[C@H]32)ncc1C(=O)Nc1cc(F)c2nc(C)cn2c1 (racemic) [Compound 245] was tested. Which IC50 did it give?
**A.** < 500 nM

**Q.** CCOc1nc(N2CCC3(CNC3)C2)ncc1C(=O)Nc1cc(F)c2nc(C)cn2c1 [Compound 220] was tested. Which IC50 did it give?
**A.** < 500 nM

**Q.** CCOc1nc(N(CC)C2CCNCC2)ncc1C(=O)Nc1ccc2nn(C)cc2c1 [Compound 272, 4-ethoxy-2-(ethyl(piperidin-4-yl)amino)-N-(2-methyl-2H-indazol-5-yl)pyrimidine-5-carboxamide formate] was tested. Which IC50 did it give?
**A.** 1000 to 3000 nM

**Q.** Which IC50 does the source give for CCNC1COC2(C1)CN(c1ncc(C(=O)Nc3cc(F)c4nc(C)cn4c3)c(OCC)n1)C2 (stereo not shown) [Compound 247] here?
**A.** < 500 nM

**Q.** Which IC50 does the source give for CCOc1nc(N2C[C@@H](C)N[C@@H](C)C2)ncc1C(=O)Nc1cn2cc(C)nc2c(C)n1 [Compound 67] here?
**A.** 500 to 1000 nM

**Q.** How did the IC50 turn out when CCOc1nc(N2CC3(CCNC3)C2)ncc1C(=O)Nc1cc(F)c2nc(C)cn2c1 [Compound 212] was run?
**A.** < 500 nM

**Q.** How did the IC50 turn out when CCOc1nc(N2CCC3(CC2)CNC3C(C)C)ncc1C(=O)Nc1cc(F)c2nc(C)cn2c1 (stereo not shown) [Compound 182] was run?
**A.** 500 to 1000 nM

**Q.** CCOc1nc(N2C[C@@H]3C[C@H]2CN3)ncc1C(=O)Nc1cc(F)c2nc(C)cn2c1 [Compound 233] was tested. Which IC50 did it give?
**A.** 500 to 1000 nM

**Q.** How did the IC50 turn out when CCOc1nc(N2CCC(NC)C2)ncc1C(=O)Nc1ccc2nc(C)cn2c1 (stereo not shown) [Compound 274, 4-ethoxy-2-(3-(methylamino)pyrrolidin-1-yl)-N-(2-methylimidazo[1,2-a]pyridin-6-yl)pyrimidine-5-carboxamide] was run?
**A.** > 3000 nM

Same assay, conditions: Homo sapiens; at 5 μM; PMS1 mini-gene firefly luciferase reporter in HEK293 cells; read-out: PMS1% Effect at 5 μM

**Q.** With COc1nc(N(C)C2CCNCC2)ncc1C(=O)Nc1cc(F)c2nn(C)cc2c1 [Compound 281, N-(7-fluoro-2-methyl-2H-indazol-5-yl)-4-methoxy-2-(methyl(piperidin-4-yl)amino) pyrimidine-5-carboxamide formate] as the compound, how does the activation at 5 µM read?
**A.** > 75%
